Measurements published in publication PMC2587278 (Antioxidants & redox signaling, 2008).

Target: T1, zebrafish Ape1 (zApe1) (Danio rerio, UniProt A0MTA1, T58C)
T1 sequence (A0MTA1 1-310 T58C): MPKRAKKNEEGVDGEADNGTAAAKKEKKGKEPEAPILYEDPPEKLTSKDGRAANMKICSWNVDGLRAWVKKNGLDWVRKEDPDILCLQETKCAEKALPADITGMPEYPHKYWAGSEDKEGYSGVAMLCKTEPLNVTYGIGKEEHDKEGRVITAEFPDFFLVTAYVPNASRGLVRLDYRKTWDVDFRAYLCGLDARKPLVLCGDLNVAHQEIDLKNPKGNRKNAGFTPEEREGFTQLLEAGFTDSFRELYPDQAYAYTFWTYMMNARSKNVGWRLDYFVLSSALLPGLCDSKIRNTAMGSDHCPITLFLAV
Assay: redox EMSA: Ape1-stimulated AP-1 DNA binding, HEX-labelled oligonucleotide
Format: biochemical

- IC50: 5 µM
SMILES: CCCCCCCCC/C(=C\C1=C(C)C(=O)C(OC)=C(OC)C1=O)C(=O)O [compound 5, (E)-3-(4,5-dimethoxy-2-methyl-3,6-dioxocyclohexa-1,4-dienyl)-2-nonylpropenoic acid]
